# Assay results from PubChem BioAssay AID248 (DTP/NCI, 2004).
# Values joined by “and” are separate entries in the source; they are usually repeats but may differ in a detail not shown here. Equal entries are not always repeated. Inconclusive results and toxic doses are left out.
# System: L1210 leukemia ip in BDF1 mice, survival T/C
# Assay: NCI In Vivo Anticancer Drug Screen. Data for tumor model L1210 Leukemia (intraperitoneal) in B6D2F1 (BDF1) mice
# Conditions: endpoint: mean survival time, higher = longer survival
# In short: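 Transplanted-tumor mice were given test agent; controls received vehicle only. Survival readings from the two groups were divided (treated over control).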
# [1] = dose: 100.0 mg/kg/injection, schedule: Q04DX003 (ip), vehicle: Klucel (hydroxypropylcellulose) (HPC)
# [2] = dose: 200.0 mg/kg/injection, schedule: Q04DX003 (ip), vehicle: Klucel (hydroxypropylcellulose) (HPC)
# [3] = dose: 400.0 mg/kg/injection, schedule: Q04DX003 (ip), vehicle: Klucel (hydroxypropylcellulose) (HPC)
# [4] = dose: 400.0 mg/kg/injection, schedule: Q01DX001 (ip), vehicle: saline
# [5] = dose: 100.0 mg/kg/injection, schedule: Q01DX009 (ip), vehicle: saline with Tween-80
# [6] = dose: 200.0 mg/kg/injection, schedule: Q01DX009 (ip), vehicle: saline with Tween-80
# [7] = dose: 100.0 mg/kg/injection, schedule: Q01DX009 (ip), vehicle: Klucel (hydroxypropylcellulose) (HPC)
# [8] = dose: 200.0 mg/kg/injection, schedule: Q01DX009 (ip), vehicle: Klucel (hydroxypropylcellulose) (HPC)
# [9] = dose: 400.0 mg/kg/injection, schedule: Q01DX009 (ip), vehicle: Klucel (hydroxypropylcellulose) (HPC)
# [10] = dose: 50.0 mg/kg/injection, schedule: Q01DX009 (ip), vehicle: saline with Tween-80
# [11] = dose: 100.0 mg/kg/injection, schedule: Q04DX003 (ip), vehicle: saline with Tween-80
# [12] = dose: 200.0 mg/kg/injection, schedule: Q04DX003 (ip), vehicle: saline with Tween-80
# [13] = dose: 400.0 mg/kg/injection, schedule: Q04DX003 (ip), vehicle: saline with Tween-80
# [14] = dose: 100.0 mg/kg/injection, schedule: Q04DX003 (ip), vehicle: saline
# [15] = dose: 200.0 mg/kg/injection, schedule: Q04DX003 (ip), vehicle: saline
# [16] = dose: 100.0 mg/kg/injection, schedule: Q01DX009 (ip), vehicle: saline
smiles,measurement,setting,value
CC12CCC(C/C1=C\C#N)C(C)(C)O2 (stereo unspecified),T/C,[1],98 % of control
same,T/C,[2],98 % of control
same,T/C,[3],101 % of control
COc1cc(N=Nc2ccccc2)ccc1N,T/C,"dose: 100.0 mg/kg/injection, schedule: Q01DX001 (ip), vehicle: saline",95 % of control
same,T/C,"dose: 100.0 mg/kg/injection, schedule: Q04DX003 (ip), vehicle: acetone",100 % of control and 111 % of control
same,T/C,"dose: 200.0 mg/kg/injection, schedule: Q01DX001 (ip), vehicle: saline",112 % of control
same,T/C,"dose: 200.0 mg/kg/injection, schedule: Q04DX003 (ip), vehicle: acetone",95 % of control
same,T/C,[4],96 % of control
same,T/C,"dose: 400.0 mg/kg/injection, schedule: Q04DX003 (ip), vehicle: acetone",96 % of control and 91 % of control
Cn1cccc1C=O,T/C,[5],102 % of control
same,T/C,[6],100 % of control
same,T/C,"dose: 400.0 mg/kg/injection, schedule: Q01DX009 (ip), vehicle: saline with Tween-80",97 % of control
Cc1ccc2c(c1)SP(=S)(c1ccccc1)N2 (stereo unspecified),T/C,"dose: 15.0 mg/kg/injection, schedule: Q01DX Z (ip), vehicle: saline",100 % of control
same,T/C,"dose: 25.0 mg/kg/injection, schedule: Q01DX Z (ip), vehicle: saline",89 % of control
CCOC1=CCN(S(=O)(=O)c2ccc(C)cc2)c2ccc(OC)cc21,T/C,[7],100 % of control
same,T/C,[1],104 % of control
same,T/C,[8],96 % of control
same,T/C,[2],94 % of control
same,T/C,[9],89 % of control
same,T/C,[3],98 % of control
O=P(Nc1ccccc1)(N1CCCCC1)N1CCCCC1,T/C,"dose: 100.0 mg/kg/injection, schedule: Q04DX002 (ip), vehicle: saline with Tween-80",101 % of control
same,T/C,"dose: 200.0 mg/kg/injection, schedule: Q04DX002 (ip), vehicle: saline with Tween-80",101 % of control
same,T/C,"dose: 400.0 mg/kg/injection, schedule: Q04DX002 (ip), vehicle: saline with Tween-80",108 % of control
C=CCNC(=S)Nc1ccc(OC(=O)NC(C)(C)C)cc1,T/C,[7],94 % of control
same,T/C,[8],95 % of control
same,T/C,[9],89 % of control
CC(C)(C)N(O)C(=O)NCCCl,T/C,"dose: 100.0 mg/kg/injection, schedule: Q01DX001 (ip), vehicle: Klucel (hydroxypropylcellulose) (HPC)",97 % of control
same,T/C,"dose: 200.0 mg/kg/injection, schedule: Q01DX001 (ip), vehicle: Klucel (hydroxypropylcellulose) (HPC)",92 % of control
same,T/C,"dose: 400.0 mg/kg/injection, schedule: Q01DX001 (ip), vehicle: Klucel (hydroxypropylcellulose) (HPC)",97 % of control
CC1(C)OCC(CO)([N+](=O)[O-])CO1,T/C,"dose: 12.5 mg/kg/injection, schedule: Q04DX003 (ip), vehicle: saline with Tween-80",92 % of control
same,T/C,"dose: 25.0 mg/kg/injection, schedule: Q01DX009 (ip), vehicle: saline with Tween-80",108 % of control
same,T/C,"dose: 25.0 mg/kg/injection, schedule: Q04DX003 (ip), vehicle: saline with Tween-80",93 % of control
same,T/C,[10],108 % of control
same,T/C,"dose: 50.0 mg/kg/injection, schedule: Q04DX003 (ip), vehicle: saline with Tween-80",95 % of control
same,T/C,[5],108 % of control
same,T/C,[11],100 % of control
same,T/C,"dose: 150.0 mg/kg/injection, schedule: Q04DX003 (ip), vehicle: saline with Tween-80",94 % of control
O=C1N=C2C=CC=CN2CC1O (stereo unspecified),T/C,[11],88 % of control
same,T/C,[12],89 % of control
same,T/C,[13],89 % of control
CCCC(NC(=O)CCl)C(=O)O (stereo unspecified),T/C,[14],96 % of control
same,T/C,[15],101 % of control
Cc1ccc(C(=O)C(Br)C(Br)c2ccccc2)cc1 (stereo unspecified),T/C,[7],89 % of control
same,T/C,[5],90 % of control
same,T/C,[11],92 % of control
same,T/C,[8],89 % of control
same,T/C,[6],89 % of control
same,T/C,[12],89 % of control
same,T/C,[9],96 % of control
same,T/C,[13],95 % of control
O=C(CCN1CCCCC1)C(O)(c1ccccc1)c1ccccc1,T/C,"dose: 75.0 mg/kg/injection, schedule: Q01DX001 (ip), vehicle: other",103 % of control
same,T/C,"dose: 150.0 mg/kg/injection, schedule: Q01DX001 (ip), vehicle: other",97 % of control
same,T/C,"dose: 300.0 mg/kg/injection, schedule: Q01DX001 (ip), vehicle: other",104 % of control
N#CCCNC(=O)Nc1cccc2ccccc12,T/C,"dose: 100.0 mg/kg/injection, schedule: Q01DX001 (ip), vehicle: carboxymethylcellulose (CMC)",96 % of control
same,T/C,"dose: 200.0 mg/kg/injection, schedule: Q01DX001 (ip), vehicle: carboxymethylcellulose (CMC)",100 % of control
same,T/C,"dose: 400.0 mg/kg/injection, schedule: Q01DX001 (ip), vehicle: carboxymethylcellulose (CMC)",96 % of control
NC(=O)n1nccc1N,T/C,[16],100 % of control
same,T/C,[14],94 % of control
same,T/C,"dose: 200.0 mg/kg/injection, schedule: Q01DX009 (ip), vehicle: saline",103 % of control
same,T/C,[15],104 % of control
same,T/C,"dose: 400.0 mg/kg/injection, schedule: Q01DX009 (ip), vehicle: saline",105 % of control
same,T/C,"dose: 400.0 mg/kg/injection, schedule: Q04DX003 (ip), vehicle: saline",91 % of control
CC(CC(=O)c1cc(Cl)ccc1O)CC(C)(C)C (stereo unspecified),T/C,"dose: 75.0 mg/kg/injection, schedule: Q01DX009 (ip), vehicle: Klucel (hydroxypropylcellulose) (HPC)",114 % of control
same,T/C,"dose: 100.0 mg/kg/injection, schedule: Q04DX002 (ip), vehicle: Klucel (hydroxypropylcellulose) (HPC)",97 % of control
same,T/C,"dose: 150.0 mg/kg/injection, schedule: Q01DX009 (ip), vehicle: Klucel (hydroxypropylcellulose) (HPC)",97 % of control
same,T/C,"dose: 200.0 mg/kg/injection, schedule: Q04DX002 (ip), vehicle: Klucel (hydroxypropylcellulose) (HPC)",93 % of control
same,T/C,"dose: 300.0 mg/kg/injection, schedule: Q01DX009 (ip), vehicle: Klucel (hydroxypropylcellulose) (HPC)",100 % of control
same,T/C,"dose: 400.0 mg/kg/injection, schedule: Q04DX002 (ip), vehicle: Klucel (hydroxypropylcellulose) (HPC)",104 % of control
c1ccc(CCSc2ncnc3nc[nH]c23)cc1,T/C,"dose: 31.3 mg/kg/injection, schedule: Q01DX Z (ip), vehicle: saline",94 % of control
same,T/C,"dose: 62.5 mg/kg/injection, schedule: Q01DX Z (ip), vehicle: saline",94 % of control
same,T/C,[16],122 % of control
same,T/C,"dose: 125.0 mg/kg/injection, schedule: Q01DX Z (ip), vehicle: saline",97 % of control
same,T/C,"dose: 175.0 mg/kg/injection, schedule: Q01DX001 (ip), vehicle: saline",100 % of control
same,T/C,"dose: 250.0 mg/kg/injection, schedule: Q01DX Z (ip), vehicle: saline",100 % of control and 101 % of control
same,T/C,"dose: 265.0 mg/kg/injection, schedule: Q01DX001 (ip), vehicle: saline",93 % of control
same,T/C,"dose: 340.0 mg/kg/injection, schedule: Q01DX009 (ip), vehicle: saline",159 % of control
same,T/C,[4],108 % of control
same,T/C,"dose: 500.0 mg/kg/injection, schedule: Q01DX Z (ip), vehicle: saline",111 % of control
same,T/C,"dose: 600.0 mg/kg/injection, schedule: Q01DX001 (ip), vehicle: saline",101 % of control
same,T/C,"dose: 1000.0 mg/kg/injection, schedule: Q01DX Z (ip), vehicle: saline",117 % of control
CCC([NH-])=O.CCC([NH-])=O.[Pt+2],T/C,"dose: 100.0 mg/kg/injection, schedule: Q01DX009 (ip), vehicle: water",107 % of control
same,T/C,"dose: 100.0 mg/kg/injection, schedule: Q04DX003 (ip), vehicle: water",101 % of control
same,T/C,"dose: 200.0 mg/kg/injection, schedule: Q01DX009 (ip), vehicle: water",106 % of control
same,T/C,"dose: 200.0 mg/kg/injection, schedule: Q04DX003 (ip), vehicle: water",108 % of control
same,T/C,"dose: 400.0 mg/kg/injection, schedule: Q04DX003 (ip), vehicle: water",110 % of control
CC(=O)Nc1ccc2c(c1)C(=O)c1cc(NC(C)=O)ccc1-2,T/C,[10],95 % of control
same,T/C,[5],95 % of control
same,T/C,[11],92 % of control
same,T/C,[6],101 % of control
same,T/C,[12],86 % of control
same,T/C,[13],89 % of control
